Results on 5 molecules are retold here after patent publication US20110152178A1 (priority 2008, published 2011).

Entries after “also recorded” stand apart in the source; their conditions may differ. Peptide text beside a SMILES is read from it. * marks the point of attachment. Stearoyl = CCCCCCCCCCCCCCCCCC(=O)*

For series [1], the system named is influenza virus A/PR/8/34 (H1N1). Briefly: Plaque assay on MDCK cells, inhibition of influenza virus infection (H1N1). The series is classed as cell-based, influenza type A virus. As to conditions: for IC50: H1N1, plaque assay on MDCK cells; for anti-influenza virus activity in vitro: MDCK plaque assay. The procedure:
(§1) Inhibition of influenza virus infection was determined by a plaque assay on MDCK cells. The MDCK cells in 6-well plates were incubated with 0.2 mL of influenza virus A/PR/8/34 solutions (100 to 200 pfu; pfu denotes plaque-forming units; subtype H1N1) or influenza virus A/Victria/1/75 solutions (100-200 pfu; subtype H3N2) each containing C18-D1, S2 (H-ARLPRTMVHPKPAQP-NH2), C18-S2 (stearoyl-ARLPRTMVHPKPAQP-NH2), or D1 (H-GLAMAPSVGHVRQHG-NH2). After incubation at 37° C. under 5% CO2 for 30 minutes, the supernatant was removed, and the cells were washed with PBS. 2 mL (per well) of 2×MEM+BSA containing 0.6% agarose, 0.01% of O-diethylaminoethyl cellulose dextran, 0.1% NaHCO3, and 0.01 μg/mL of acetyl trypsin was added, and the cells were incubated for two days. Viable cells were stained with a crystal violet solution (1 mg/mL in 20% ethanol), and the number of plaques was counted. The maximum infection activity (100%) was defined as the number of plaques in the case of the absence of C18-D1. The IC50 value (50% inhibitory concentration) of C18-D1 was obtained from the plot between log [f/(1−f)] and log [C18-D1], wherein f is the percent infection activity. The IC50 values of S2, C18-S2, and D1 were calculated in a similar manner.

For series [2], the system named is influenza virus A/Victria/1/75 (H3N2). Description: Plaque assay on MDCK cells, inhibition of influenza virus infection (H3N2). The series is classed as cell-based, influenza type A virus. The procedure:
as §1

The nature of series [3]: Critical micelle concentration by NPN fluorescence in PBS. To be noted: PBS (pH 7.5), 1 μM NPN. The format is physicochemical. The procedure:
The critical micelle concentration (CMC) of the purified C18-D1 was determined in the following manner. PBS (pH 7.5) containing 1 μM of N-phenyl-1-naphthylamine (hereinafter abbreviated as “NPN”) was prepared. A C18-D1 peptide stock solution (1 mM) was serially diluted to final concentrations of […], 10, and 30 μM. These solutions were excited by a wavelength of 350 nm, and the fluorescence intensity (FI) at 450 nm was measured. The difference in FI between each diluted peptide solution and PBS alone was plotted as the ordinate, and the peptide solutions were plotted as the abscissa. The concentration at the intersection of the high concentration curve and the low concentration curve was determined. The critical micelle concentration (CMC) of the intersection was 1.3 μM.

The subject of a further series is influenza virus (H1N1). Also on record: species or system mice. To be noted: mouse.
The target of series [4] is hemagglutinin of influenza type A virus A/PR/8/34 (H1N1) (influenza A virus A/PR/8/34 (H1N1)) (UniProt P03452). Description: cell-based or functional assay.
Series [5] deals with hemagglutinin of influenza type A virus A/Victria/1/75 (H3N2) (influenza A virus A/Victria/1/75 (H3N2)). Briefly: cell-based or functional assay.

For `CCCCCCCCCCCCCCCCCC(=O)NCC(=O)N[C@@H](CC(C)C)C(=O)N[C@@H](C)C(=O)N[C@@H](CCSC)C(=O)N[C@@H](C)C(=O)N1CCC[C@H]1C(=O)N[C@@H](CO)C(=O)N[C@H](C(=O)NCC(=O)N[C@@H](Cc1c[nH]cn1)C(=O)N[C@H](C(=O)N[C@@H](CCCNC(=N)N)C(=O)N[C@@H](CCC(N)=O)C(=O)N[C@@H](Cc1c[nH]cn1)C(=O)NCC(N)=O)C(C)C)C(C)C` [C18-D1, (stearoyl)-Gly Leu Ala Met Ala Pro Ser Val Gly His Val Arg Gln His Gly-NH2] (Stearoyl-GLAMAPSVGHVRQHG-NH2), the IC50 (commonly the concentration at which inhibition is half-maximal) in series [1] amounted to 11 µM; in series [2] (H3N2, plaque assay on MDCK cells), 7.5 µM. In addition, the “anti-influenza virus activity in vitro” value in series [1] is reported as “inhibited”; in series [1] (listed as 018-D1) it was “excellent anti-influenza virus activity”. The “infection of MDCK cells with H3N2” value in series [2] (in vitro, MDCK plaque assay) is “inhibited”. Moreover, the “critical micelle concentration (CMC)” value in series [3] worked out at 1.3 µM. This molecule also yielded a mice survived in the series with influenza virus (H1N1) (in vivo) of no less than 80%.
`CCCCCCCCCCCCCCCCCC(=O)N[C@@H](C)C(=O)N[C@@H](CCCNC(=N)N)C(=O)N[C@@H](CC(C)C)C(=O)N1CCC[C@H]1C(=O)N[C@@H](CCCNC(=N)N)C(=O)N[C@H](C(=O)N[C@@H](CCSC)C(=O)N[C@H](C(=O)N[C@@H](Cc1c[nH]cn1)C(=O)N1CCC[C@H]1C(=O)N[C@@H](CCCCN)C(=O)N1CCC[C@H]1C(=O)N[C@@H](C)C(=O)N[C@@H](CCC(N)=O)C(=O)N1CCC[C@H]1C(N)=O)C(C)C)[C@@H](C)O` [C18-S2, stearoyl ARLPRTMVHPKPAQP-NH2] (Stearoyl-ARLPRTMVHPKPAQP-NH2): in series [1], half-maximal inhibition (IC50) was put at 10 µM and the “anti-influenza virus activity in vitro” value is reported as “potent anti-influenza virus effect in vitro; also recorded: excellent anti-influenza virus activity”. Besides, in the series on influenza virus (H1N1), the “in vivo effect on influenza virus infection” value was “ineffective in vivo; also recorded: caused early mortality”.
The molecule “H-ARLPRTMVHPKPAQP-NH2 [S2-NH2, H-ARLPRTMVHPKPAQP-NH2]” showed an IC50 in series [1] greater than 100 µM.
For the molecule “H-GLAMAPSVGHVRQHG-NH2 [D1-NH2, H-GLAMAPSVGHVRQHG-NH2]”, in series [1], the IC50 is greater than 100 µM.

B1: C18-D1 (stearoyl-Gly Leu Ala Met Ala Pro Ser Val Gly His Val Arg Gln His Gly-NH2), as self-assembly (peptide)
peptide: Stearoyl-GLAMAPSVGHVRQHG-NH2
As for B1, the IC50 (plaque assay on MDCK cells, inhibition of influenza virus infection) was determined as 11 µM in series [4] and 7.5 µM in series [5].
